PubChem BioAssay AID248 (DTP/NCI, 2004)
“And” between values parts separate entries of the source, which are not always exact repeats. Identical values can stand only once. Inconclusive results and toxic doses are left out.

System: L1210 leukemia ip in BDF1 mice, survival T/C
Assay: NCI In Vivo Anticancer Drug Screen. Data for tumor model L1210 Leukemia (intraperitoneal) in B6D2F1 (BDF1) mice
Details: endpoint: mean survival time, higher = longer survival
Method in brief: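 In this screen, tumor-bearing mice given compound are compared to those given vehicle, and their survival values are reported as a treated-to-control quotient.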

[1] = dose: 400.0 mg/kg/injection, schedule: Q01DX001 (ip), vehicle: saline
[2] = dose: 75.0 mg/kg/injection, schedule: Q01DX001 (ip), vehicle: saline
[3] = dose: 50.0 mg/kg/injection, schedule: Q01DX001 (ip), vehicle: saline
[4] = dose: 100.0 mg/kg/injection, schedule: Q01DX001 (ip), vehicle: saline
[5] = dose: 200.0 mg/kg/injection, schedule: Q01DX001 (ip), vehicle: saline
[6] = dose: 100.0 mg/kg/injection, schedule: Q01DX009 (ip), vehicle: saline with Tween-80
[7] = dose: 200.0 mg/kg/injection, schedule: Q01DX009 (ip), vehicle: saline with Tween-80
[8] = dose: 100.0 mg/kg/injection, schedule: Q04DX002 (ip), vehicle: saline with Tween-80
[9] = dose: 200.0 mg/kg/injection, schedule: Q04DX002 (ip), vehicle: saline with Tween-80
[10] = dose: 400.0 mg/kg/injection, schedule: Q04DX002 (ip), vehicle: saline with Tween-80
[11] = dose: 100.0 mg/kg/injection, schedule: Q01DX009 (ip), vehicle: Klucel (hydroxypropylcellulose) (HPC)
[12] = dose: 200.0 mg/kg/injection, schedule: Q01DX009 (ip), vehicle: Klucel (hydroxypropylcellulose) (HPC)
[13] = dose: 400.0 mg/kg/injection, schedule: Q01DX009 (ip), vehicle: Klucel (hydroxypropylcellulose) (HPC)

CCNc1nncs1
T/C (dose: 7.0 mg/kg/injection, schedule: Q03HX032 (ip), vehicle: saline): 97 % of control
T/C (dose: 11.0 mg/kg/injection, schedule: Q03HX032 (ip), vehicle: saline): 104 % of control
T/C (dose: 16.0 mg/kg/injection, schedule: Q03HX032 (ip), vehicle: saline): 105 % of control
T/C (dose: 17.25 mg/kg/injection, schedule: Q01DX Z (ip), vehicle: carboxymethylcellulose (CMC)): 102 % of control
T/C (dose: 24.0 mg/kg/injection, schedule: Q03HX032 (ip), vehicle: saline): 101 % of control
T/C (dose: 27.0 mg/kg/injection, schedule: Q01DX015 (ip), vehicle: saline): 106 % of control
T/C (dose: 27.6 mg/kg/injection, schedule: Q01DX Z (ip), vehicle: carboxymethylcellulose (CMC)): 100 % of control and 114 % of control
T/C (dose: 34.5 mg/kg/injection, schedule: Q01DX Z (ip), vehicle: carboxymethylcellulose (CMC)): 98 % of control and 101 % of control
T/C (dose: 36.0 mg/kg/injection, schedule: Q03HX032 (ip), vehicle: saline): 118 % of control
T/C (dose: 40.0 mg/kg/injection, schedule: Q01DX015 (ip), vehicle: saline): 103 % of control
T/C (dose: 46.0 mg/kg/injection, schedule: Q01DX Z (ip), vehicle: carboxymethylcellulose (CMC)): 100 % of control and 107 % of control
T/C (dose: 60.0 mg/kg/injection, schedule: Q01DX015 (ip), vehicle: saline): 108 % of control
T/C (dose: 64.0 mg/kg/injection, schedule: Q02DX010 (ip), vehicle: carboxymethylcellulose (CMC)): 117 % of control
T/C (dose: 75.0 mg/kg/injection, schedule: Q01DX Z (ip), vehicle: saline): 170 % of control
T/C (dose: 96.0 mg/kg/injection, schedule: Q02DX010 (ip), vehicle: carboxymethylcellulose (CMC)): 123 % of control
T/C (dose: 103.5 mg/kg/injection, schedule: Q01DX Z (ip), vehicle: carboxymethylcellulose (CMC)): 123 % of control
T/C (dose: 138.0 mg/kg/injection, schedule: Q01DX Z (ip), vehicle: carboxymethylcellulose (CMC)): 112 % of control
T/C (dose: 150.0 mg/kg/injection, schedule: Q01DX Z (ip), vehicle: saline): 176 % of control
T/C (dose: 150.0 mg/kg/injection, schedule: Q01DX Z (oral), vehicle: saline): 115 % of control
T/C (dose: 265.0 mg/kg/injection, schedule: Q01DX001 (ip), vehicle: saline): 104 % of control
T/C (dose: 270.0 mg/kg/injection, schedule: Q01DX001 (ip), vehicle: saline): 106 % of control
T/C (dose: 300.0 mg/kg/injection, schedule: Q01DX Z (oral), vehicle: saline): 98 % of control
T/C (dose: 337.0 mg/kg/injection, schedule: Q02DX010 (ip), vehicle: carboxymethylcellulose (CMC)): 120 % of control
T/C [1]: 109 % of control
T/C (dose: 562.0 mg/kg/injection, schedule: Q02DX010 (ip), vehicle: carboxymethylcellulose (CMC)): 112 % of control and 76 % of control
T/C (dose: 562.5 mg/kg/injection, schedule: Q02DX010 (ip), vehicle: carboxymethylcellulose (CMC)): 84 % of control and 88 % of control
T/C (dose: 600.0 mg/kg/injection, schedule: Q01DX001 (ip), vehicle: saline): 117 % of control
T/C (dose: 600.0 mg/kg/injection, schedule: Q01DX Z (oral), vehicle: saline): 87 % of control

O=[N+]([O-])c1ccc([As](=O)(O)c2ccc([N+](=O)[O-])cc2)cc1
T/C [2]: 95 % of control
T/C (dose: 150.0 mg/kg/injection, schedule: Q01DX001 (ip), vehicle: saline): 100 % of control

CN(C)C1(C(=O)O)c2ccccc2-c2ccccc21
T/C [3]: 100 % of control
T/C [4]: 100 % of control
T/C [5]: 97 % of control

Oc1ccccc1C=NCCCN1CCOCC1.Oc1ccccc1C=NCCCN1CCOCC1.[Co]
T/C (dose: 12.5 mg/kg/injection, schedule: Q01DX001 (ip), vehicle: saline): 98 % of control
T/C (dose: 25.0 mg/kg/injection, schedule: Q01DX001 (ip), vehicle: saline): 100 % of control
T/C [3]: 98 % of control

CCOCCOCCOC(=O)COCC(=O)OCCOCCOCC
T/C [4]: 96 % of control
T/C [5]: 113 % of control
T/C [1]: 111 % of control

O=C(N/N=C/c1ccccc1O)c1ccc(Cl)cc1
T/C (dose: 50.0 mg/kg/injection, schedule: Q01DX009 (ip), vehicle: saline with Tween-80): 93 % of control
T/C [6]: 93 % of control
T/C [7]: 93 % of control

COCC(O)CN1CCN(c2ccccc2C)CC1 (configuration not stated)
T/C (dose: 25.0 mg/kg/injection, schedule: Q01DX009 (ip), vehicle: saline): 108 % of control
T/C (dose: 50.0 mg/kg/injection, schedule: Q01DX009 (ip), vehicle: saline): 93 % of control
T/C (dose: 100.0 mg/kg/injection, schedule: Q01DX009 (ip), vehicle: saline): 100 % of control

c1ccc2cc(B(c3cccc4ccccc34)c3cccc4ccccc34)ccc2c1
T/C (dose: 12.5 mg/kg/injection, schedule: Q04DX002 (ip), vehicle: saline with Tween-80): 102 % of control
T/C (dose: 25.0 mg/kg/injection, schedule: Q04DX002 (ip), vehicle: saline with Tween-80): 94 % of control
T/C (dose: 50.0 mg/kg/injection, schedule: Q04DX002 (ip), vehicle: saline with Tween-80): 105 % of control

Cc1ccc(S(=O)(=O)OC2C(C(O)CO)OC3OC(C)(C)OC32)cc1 (configuration not stated)
T/C [8]: 90 % of control
T/C [9]: 97 % of control
T/C [10]: 101 % of control

C/C(=N\Sc1ccccc1)c1ccccc1O
T/C (dose: 100.0 mg/kg/injection, schedule: Q04DX002 (ip), vehicle: other): 102 % of control
T/C (dose: 200.0 mg/kg/injection, schedule: Q04DX002 (ip), vehicle: other): 88 % of control

Oc1ccc(Br)cc1C=Nc1ccccc1
T/C [8]: 96 % of control
T/C [9]: 104 % of control
T/C [10]: 100 % of control

Cc1ccc(S(=O)(=O)N(CC(=O)c2ccccc2)c2ccc(Br)cc2)cc1
T/C [4]: 89 % of control
T/C [5]: 86 % of control
T/C [1]: 86 % of control

c1cc(OCCN2CC2)ccn1
T/C (dose: 12.5 mg/kg/injection, schedule: Q01DX001 (ip), vehicle: carboxymethylcellulose (CMC)): 98 % of control
T/C (dose: 25.0 mg/kg/injection, schedule: Q01DX001 (ip), vehicle: carboxymethylcellulose (CMC)): 108 % of control

COP(=O)(O)NC(C)=O
T/C (dose: 100.0 mg/kg/injection, schedule: Q04DX002 (ip), vehicle: saline): 105 % of control
T/C (dose: 200.0 mg/kg/injection, schedule: Q04DX002 (ip), vehicle: saline): 108 % of control
T/C (dose: 400.0 mg/kg/injection, schedule: Q04DX002 (ip), vehicle: saline): 91 % of control

COc1cc(C=Nc2ccc(Cl)cc2)ccc1O
T/C [6]: 97 % of control
T/C (dose: 100.0 mg/kg/injection, schedule: Q04DX003 (ip), vehicle: saline with Tween-80): 120 % of control
T/C [7]: 94 % of control
T/C (dose: 200.0 mg/kg/injection, schedule: Q04DX003 (ip), vehicle: saline with Tween-80): 96 % of control
T/C (dose: 400.0 mg/kg/injection, schedule: Q01DX009 (ip), vehicle: saline with Tween-80): 101 % of control
T/C (dose: 400.0 mg/kg/injection, schedule: Q04DX003 (ip), vehicle: saline with Tween-80): 103 % of control

Cc1ccc(S(=O)(=O)N=S2CCCC2)cc1
T/C [11]: 97 % of control
T/C [12]: 102 % of control
T/C [13]: 102 % of control

Cc1cn(C2SC(CO)C(O)C2O)c(=O)[nH]c1=O (configuration not stated)
T/C [3]: 97 % of control
T/C [4]: 105 % of control
T/C [5]: 100 % of control
T/C [1]: 100 % of control

Cc1nc(-c2ccc(N=Cc3ccc(N(CCOS(C)(=O)=O)CCOS(C)(=O)=O)cc3)cc2)cs1
T/C (dose: 2.5 mg/kg/injection, schedule: Q04DX003 (ip), vehicle: Klucel (hydroxypropylcellulose) (HPC)): 106 % of control
T/C (dose: 5.0 mg/kg/injection, schedule: Q04DX003 (ip), vehicle: Klucel (hydroxypropylcellulose) (HPC)): 113 % of control
T/C (dose: 10.0 mg/kg/injection, schedule: Q04DX003 (ip), vehicle: Klucel (hydroxypropylcellulose) (HPC)): 120 % of control
T/C (dose: 100.0 mg/kg/injection, schedule: Q04DX003 (ip), vehicle: Klucel (hydroxypropylcellulose) (HPC)): 118 % of control
T/C (dose: 200.0 mg/kg/injection, schedule: Q04DX003 (ip), vehicle: Klucel (hydroxypropylcellulose) (HPC)): 88 % of control

O=C1OC(c2ccccc2)(c2cccc3ccccc23)CC1c1ccccc1 (configuration not stated)
T/C [4]: 98 % of control
T/C [5]: 98 % of control
T/C [1]: 89 % of control

CC1CN1CO (configuration not stated)
T/C [2]: 109 % of control

CC1(C)OC2C(N)OC(CO)C2O1 (configuration not stated)
T/C (dose: 100.0 mg/kg/injection, schedule: Q04DX003 (ip), vehicle: saline): 95 % of control
T/C (dose: 200.0 mg/kg/injection, schedule: Q04DX003 (ip), vehicle: saline): 110 % of control
T/C (dose: 400.0 mg/kg/injection, schedule: Q04DX003 (ip), vehicle: saline): 104 % of control

C(=N\Nc1nc2ccccc2s1)/c1cccnc1
T/C [11]: 98 % of control
T/C [12]: 98 % of control
T/C [13]: 101 % of control
